The values that follow come from article PMC11671014 (PLOS Pathogens, 2024).

SMILES strings stand for the structures. Read-outs that look alike come from different tables or passages of the source.

Assay [1] concerns stage V NF54 strain male and female gametocytes. Description: P. falciparum Dual Gamete Formation Assay (PfDGFA). The settings on record: Plasmodium falciparum, 48 h. It counts as cell-based. How it is done: Inhibition of the viability of stage V male and female gametocytes was assessed in the P. falciparum Dual Gamete Formation Assay (PfDGFA) as described previously. Briefly, mature stage V NF54 strain gametocytes were incubated with test molecules for 48 h in 384-well plates at 37°C. Gametogenesis was then triggered by cooling the plates to room temperature and addition of xanthurenic acid-containing activating medium (also containing anti-Pfs25 antibody (Mab 4B7) conjugated to a Cy3 fluorophore). Twenty minutes after activation, exflagellation was imaged in all wells of the plate using a x4 objective and automated brightfield microscopy. The plate was then incubated at 20°C for a further 24 h in the dark. Thereafter, female gamete formation was quantified by automated identification of Pfs25-positive cells. Automated counts were transformed to percent inhibition values with reference to positive 100 nM Cabamiquine (DDD498) and negative (DMSO) controls. Data represent the means of multiple independent biological repeats.

For assay [2], the system named is P. falciparum liver stage schizont (NF175). The arrangement: method as in ref [1] Xie et al., Science 2022. The settings on record: ref [1] Xie et al., Science 2022; cited from earlier work.
In assay [3] the test system is CAM 3.II Rev parasites, trophozoite and schizont stages. In words: Pulsed exposure viability of trophozoite and schizont stages, flow cytometry of Syto-61-labelled parasites. Format: cell-based, Plasmodium falciparum. The note with it: for LD50 Troph: trophozoite. On the technique in general: Flow cytometry measures light scatter and fluorescence of single cells or particles in a stream.

For orientation: IC50 means the midpoint of a concentration-inhibition curve. On to `CC(C)c1nn([C@@H]2O[C@H](COS(N)(=O)=O)[C@@H](O)[C@H]2O)c2ncnc(N)c12` [ML471, ((2R,3S,4R,5R)-5-(4-amino-3-isopropyl-1H-pyrazolo[3,4-d]pyrimidin-1-yl)-3,4-dihydroxytetrahydrofuran-2-yl)methyl sulfamate], for which the IC50 came to 260 nM in assay [1] (female, read-out: Dual gamete formation assay (female) IC50(48h)) and 49 nM in assay [1] (male, read-out: Dual gamete formation assay (male) IC50(48h)).

Regarding `Nc1ncnc2c1c(OC(F)F)nn2[C@@H]1O[C@H](COS(N)(=O)=O)[C@@H](O)[C@H]1O` [ML901], the 50% inhibitory concentration (IC50) in assay [2] was 13 ± 5 nM. In addition, the “LD50 Schizont” value in assay [3] (30 h continuous) turned out to be 8.5 ± 0.7 nM; in assay [3] (drug pulse time 3 h), 88 ± 1 nM; in assay [3] (drug pulse time 6 h), 36 ± 6 nM; in assay [3] (drug pulse time 9 h) it was 21 ± 12 nM. The “fold lower sensitivity of trophozoite stage compared with schizont stage” value in assay [3] (short pulses of 3 h or 6 h) fell in the range of 10 to 20 fold. The “LD50 Troph” value in assay [3] (48 h continuous) is 3.9 ± 0.8 nM; in assay [3] (drug pulse time 3 h), 1700 ± 460 nM; in assay [3] (drug pulse time 6 h), 680 ± 48 nM; in assay [3] (drug pulse time 9 h), 290 ± 150 nM; in assay [3] (drug pulse time 24 h) it was 4.0 ± 0.0 nM.
